Data reported in patent US11458212B2, “Molecular imaging of cancer cells in vivo” (H. Lee Moffitt Cancer Center and Research Institute, Inc., priority 2011, dated 2022).
Blank lines part the entries; values can stand above or below the molecule they belong to.

Tests used:
TLR2 [1] = biological target: T1, TLR2 (Homo sapiens, UniProt O60603); test: In cyto europium TRF saturation binding assay; design: ATCC (SU.86.86 CRL-1837, Capan-I HTB-79); SU.86.86 and Capan-I express TLR2 endogenously
Experimental: TRF binding assays were performed as previously described (see Xu, L., et al. Mol Cancer Ther. 2009 8(8):2356-65).
Europium TRF binding assays were performed as previously described with slight modifications using 3 cell lines that express TLR2: HEK-293/hTLR2, SU.86.86, and Capan-I.[23a, 23d, 29] The Capan-I and SU.86.86 cells were plated in 96-well black plates with white opaque wells (PerkinElmer); while the HEK-293/hTLR2 cells were plated on 96-well poly-D-lysine coated plates (Sigma-Aldrich) to aid in the attachment of these cells to the plate. Cells were grown in the 96-well plates for 2 days reaching approximately 80% confluency. Both types of plates were evaluated for nonspecific binding and background signal.
For saturation binding, increased concentrations of the labeled ligand, compound 11 (Table 8), were used to determine total binding to TLR2. Non-specific binding was determined in the presence of 1 μM Pam2CSK4. On the day of the experiment the medium was aspirated. 50 μL of binding buffer was added to the total binding wells and 50 μL of Pam2CSK4 was added to the non-specific wells and then allowed to incubate for 30 m at 37° C. Next, 50 μL of the serial dilutions of […] were added and then allowed to incubate for 1 h at 37° C. Cells were washed three times to remove unbound ligand. Next, 100 μL of DELFIA Enhancement Solution (PerkinElmer) was added to each well. Cells were incubated for 30 min at 37° C. prior to reading. The plates were read on the VICTOR X4 Multilabel plate reader using the standard europium TRF protocol (340 nm excitation, […] and […] collection at 615 nm). To determine the mean Kd, statistical analysis was performed using GraphPad Prism software.
Target sequence in this assay (O60603 21-784): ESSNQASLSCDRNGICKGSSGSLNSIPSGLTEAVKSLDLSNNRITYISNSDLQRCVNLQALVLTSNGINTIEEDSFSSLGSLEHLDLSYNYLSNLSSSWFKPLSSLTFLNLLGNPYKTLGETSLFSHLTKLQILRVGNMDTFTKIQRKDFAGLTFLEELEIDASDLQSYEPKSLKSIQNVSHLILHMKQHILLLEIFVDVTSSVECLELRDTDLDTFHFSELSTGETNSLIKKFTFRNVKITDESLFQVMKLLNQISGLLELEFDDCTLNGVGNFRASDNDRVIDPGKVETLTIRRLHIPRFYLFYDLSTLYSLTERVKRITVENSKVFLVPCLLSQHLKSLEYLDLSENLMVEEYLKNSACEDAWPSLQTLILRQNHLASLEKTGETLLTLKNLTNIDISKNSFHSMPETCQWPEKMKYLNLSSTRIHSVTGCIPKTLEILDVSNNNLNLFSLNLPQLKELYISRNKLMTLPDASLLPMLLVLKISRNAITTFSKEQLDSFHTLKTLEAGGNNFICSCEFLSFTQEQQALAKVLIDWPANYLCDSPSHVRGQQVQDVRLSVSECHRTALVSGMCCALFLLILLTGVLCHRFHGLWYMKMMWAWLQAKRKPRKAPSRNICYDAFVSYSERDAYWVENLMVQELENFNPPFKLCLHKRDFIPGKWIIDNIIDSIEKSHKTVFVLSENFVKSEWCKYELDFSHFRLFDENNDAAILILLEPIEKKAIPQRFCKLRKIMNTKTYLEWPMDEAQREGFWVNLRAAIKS
Target sequence in this assay (Q9Y2C9 32-796 partner): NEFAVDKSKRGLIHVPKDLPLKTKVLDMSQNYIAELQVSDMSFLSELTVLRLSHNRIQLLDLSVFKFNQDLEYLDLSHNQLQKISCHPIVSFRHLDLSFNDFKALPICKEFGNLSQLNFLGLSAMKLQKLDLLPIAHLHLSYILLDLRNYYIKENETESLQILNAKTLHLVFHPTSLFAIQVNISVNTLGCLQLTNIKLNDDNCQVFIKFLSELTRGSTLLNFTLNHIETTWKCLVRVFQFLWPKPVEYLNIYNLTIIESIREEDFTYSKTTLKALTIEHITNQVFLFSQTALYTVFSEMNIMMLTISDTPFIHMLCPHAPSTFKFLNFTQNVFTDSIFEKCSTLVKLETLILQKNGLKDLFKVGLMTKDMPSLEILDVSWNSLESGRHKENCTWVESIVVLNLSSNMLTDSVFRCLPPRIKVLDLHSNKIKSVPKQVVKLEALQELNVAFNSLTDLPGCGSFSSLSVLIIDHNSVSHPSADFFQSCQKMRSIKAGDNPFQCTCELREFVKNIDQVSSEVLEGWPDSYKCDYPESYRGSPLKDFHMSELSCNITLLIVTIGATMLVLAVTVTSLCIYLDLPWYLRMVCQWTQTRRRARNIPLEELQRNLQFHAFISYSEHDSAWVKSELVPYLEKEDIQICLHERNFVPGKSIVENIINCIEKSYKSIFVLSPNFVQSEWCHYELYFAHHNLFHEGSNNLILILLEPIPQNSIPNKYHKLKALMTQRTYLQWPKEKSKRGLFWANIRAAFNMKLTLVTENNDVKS

TLR2 [2] = biological target: T1, TLR2; test: In vitro TLR2 functional bioassay (NF-κB luciferase, HEK293/hTLR2 cells); type: cell-based; design: host or cells: HEK293 stably transfected with pUNO-hTLR2, transiently transfected with the pNifty-Luc reporter
From the text: In Vitro TLR2 Functional Bioassay The in vitro TLR2 functional bioassay was developed and optimized for use in screening soluble compound libraries to identify both TLR2 agonists and antagonists. In this study, the TLR2 functional bioassay was used as a fast high throughput screening to identify TLR2 agonist ligands by measuring the inducing activity of NF-κB. HEK293/hTLR2 cells, highly overexpressing human TLR2, were used along with the parental HEK293, cells as a negative control. Cells were seeded at a density of 40,000 per well using a WellMate® Microplate dispenser (Thermo Fischer Scientific/Matrix) in black 96-well plates with opaque white wells (Perkin Elmer Wallac, Waltham, Mass.) and then incubated at 37° C. On day 2, the cells were transiently transfected with pNifty-Luc (InvivoGen), an NF-κB inducible reporter plasmid expressing the luciferase reporter gene (Zuany-Amorim, C., J., et al. Nat Rev Drug Discov, 2002. 1(10):797-807), using an optimized 4:1 ratio by volume of Fugene® HD Transfection Reagent (Roche Applied Science, Indianapolis, Ind.) to pNifty-Luc plasmid DNA (1 μg/mL). […] On day 4 after 24 hrs of peptide stimulation, luciferase induced activity by the induction of NF-κB was measured. Media was aspirated from the wells using an ELx405 Select plate washer (BioTek, Winooski, Vt.), 150 μg/mL D-luciferin (Gold Biotechnology, St. Louis, Mo.) was dispensed using the microplate dispensor; the plates were incubated at 37° C. for 5 min. The luminescence intensity was measured using the standard luminescence protocol on a Victor™ X4 plate-reader equipped with a plate stacker for readout of multiple plates at a time (PerkinElmer, Waltham, Mass.). For each in vitro TLR2 bioassay, at least three different experiments were performed in triplicate (n=3+). Data were analyzed with GraphPad Prism software and curves were generated with the appropriate nonlinear fit regression analysis.
The in vitro TLR2 functional bioassay was developed and optimized for use in high-throughput screening of soluble compound libraries to identify both TLR2 agonists and antagonists. The bioassay measures the induction of NF-κB signaling via TLR2 in HEK-293/hTLR2 cells and parental HEK-293 cells as a negative control. Cells were seeded at a density of 40,000 per well using a WellMate Microplate dispenser (Thermo Fisher Scientific/Matrix) in black 96-well plates with opaque white wells (PerkinElmer, Waltham, Mass.) and then incubated at 37° C. On day 2, the cells were transiently transfected with pNifty-Luc (InvivoGen, San Diego, Calif.), an NF-κB inducible reporter plasmid expressing the luciferase reporter gene[28] using an optimized 4:1 ratio by volume of FugeneHD Transfection Reagent (Promega, Madison, Wis.) to pNifty-Luc plasmid DNA (1 μg/mL). […] […] On day 4 after 24 h of peptide stimulation, luciferase induced activity by the induction of NF-κB was measured. Media was aspirated from the wells using an ELx405 Select CW plate washer (BioTek, Winooski, Vt.), 150 μg/mL D-luciferin (Gold Biotechnology, St. Louis, Mo.) was dispensed using the microplate dispensor; the plates were incubated at 37° C. for 5 min. The luminescence intensity was measured using the standard luminescence protocol on a Victor X4 Multilabel plate reader equipped with a plate stacker for readout of multiple plates at a time (PerkinElmer, Waltham, Mass.). […] Data were analyzed with GraphPad Prism software and curves were generated with the appropriate nonlinear fit regression analysis.
Target sequence in this assay (O60603 21-784): as the sequence (O60603 21-784) above
Target sequence in this assay (Q9Y2C9 32-796 partner): as the sequence (Q9Y2C9 32-796 partner) above

TLR2 [3] = biological target: T1, TLR2; settings: 95° C. for 30 min; cited from earlier work
Target sequence in this assay (O60603 21-784, species assumed): as the sequence (O60603 21-784) above

Bmax (TLR2 [1]; Capan-I cells): 951,170 AFU
Bmax (TLR2 [1]; HEK-293/hTLR2 cells): 114,271 AFU
Bmax (TLR2 [1]; SU.86.86 cells): 269,878 AFU
Kd (TLR2 [1]; cell line not stated): 30 nM
decrease in potency compared to 10 (TLR2 [2]): 10 fold
Molecule: CCCCCCCCCCCCCCCC(=O)OC[C@H](CSC[C@H](NC(=O)COCC(=O)NCCCOCCOCCOCCCNC(=O)CN(CCN(CCN(CC(=O)O)CC(=O)O)CC(=O)O)CC(=O)O)C(=O)NCC(=O)N[C@H](CO)C(=O)NCCCOCCOCCOCCCNC(=O)COCC(N)=O)OC(=O)CCCCCCCCCCCCCCC [Compound 11]

NF-κB induced luciferase activity (luminescence) in screening (TLR2 [2]; 1 μg/mL, SAA at 1 and 10 μg/mL): low potency
B1: SAA: recombinant human Apo-SAA1 (Peprotech) derived from E. coli; serum amyloid A, acute-phase protein, TLR2 agonist (protein)
chain: MRSFFSFLGEAFDGARDMWRAYSDMREANYIGSDKYFHARGNYDAAKRGPGGVWAAEAISDRENIQRFFGHGAEDSLADQAANEWGRSGKDPNHFRPAGLPEKY
loss of activity of heat-treated SAA (TLR2 [3]): 95%
